Paper PMC4459529 (Chemistry & biology, 2015)

Target: monoacylglycerol lipase (MGL) (Rattus norvegicus, UniProt Q8R431)
Assay: biochemical

monoacylglycerol lipase (MGL), sequence (Q8R431 whole entry): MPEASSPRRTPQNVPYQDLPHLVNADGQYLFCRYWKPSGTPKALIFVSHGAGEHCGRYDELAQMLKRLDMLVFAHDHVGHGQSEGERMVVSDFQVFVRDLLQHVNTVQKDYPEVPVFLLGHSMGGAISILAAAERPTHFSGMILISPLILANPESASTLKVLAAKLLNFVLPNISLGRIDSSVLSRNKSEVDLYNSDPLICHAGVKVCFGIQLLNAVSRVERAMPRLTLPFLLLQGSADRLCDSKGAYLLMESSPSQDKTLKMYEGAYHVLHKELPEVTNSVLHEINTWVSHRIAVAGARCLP

## OO [hydrogen peroxide]
  IC50: 8.2 ± 1.3 µM
